Assay results published in patent US8329691B2, “Amide compounds and use of the same” (Takeda Pharmaceutical Company Limited, priority 2007, dated 2012).
Where a name gives a salt, the structure may show the parent alone.

target: T1, human renin (Homo sapiens, UniProt P00797); test: Measurement of renin inhibition value - B (angiotensinogen substrate, angiotensin I EIA); format: biochemical; conditions: 1 μM test compound, pH 7.4, 37° C., 30 min
T1 construct: taking the active type (67-406); made in house
T1 sequence (P00797 67-406): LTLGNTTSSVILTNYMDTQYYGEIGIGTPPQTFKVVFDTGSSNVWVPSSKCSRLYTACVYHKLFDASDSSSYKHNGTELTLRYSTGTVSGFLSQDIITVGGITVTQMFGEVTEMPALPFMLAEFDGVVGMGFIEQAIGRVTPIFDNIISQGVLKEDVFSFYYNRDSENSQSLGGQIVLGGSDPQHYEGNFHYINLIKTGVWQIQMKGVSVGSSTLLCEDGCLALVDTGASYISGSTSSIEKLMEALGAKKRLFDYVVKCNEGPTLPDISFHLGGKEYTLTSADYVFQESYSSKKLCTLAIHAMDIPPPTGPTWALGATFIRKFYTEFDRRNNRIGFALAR
Protocol: After the reaction, 0.4 ml of immobilized trypsin inhibitor (Pierce Biotechnology, Inc.) was added to remove the trypsin used in the activation by adsorption. The reaction liquid containing the active type renin was concentrated using Vivaspin 20 (molecular weight cut off 10,000, Vivascience, Inc.), and was diluted with 20 mM Tris-hydrochloric acid (pH 8.0).
(5) Purification of Angiotensinogen
After transfection of the plasmid DNA, the cells were subjected to shaking culture under the conditions of 37° C., 8% CO2 and 125 rpm for 3 days. A 600-ml aliquot of the culture medium was centrifuged at 2,000 rpm for 10 min to recover the culture supernatant containing angiotensinogen. To the culture supernatant was added ammonium sulfate (30% saturated concentration), and the mixture was thoroughly stirred and centrifuged at 8,000 rpm for 20 min. The obtained supernatant was added to TOYO Pearl butyl 650M (2×5 cm, Tosoh Corporation) equilibrated with 50 mM tris-hydrochloric acid (pH 8.0) containing 30% saturated ammonium sulfate, at a flow rate of 25 ml/min to allow adsorption. After washing with equilibration buffer, angiotensinogen was eluted by linear concentration gradient from the buffer used for equilibration to 20 mM tris-hydrochloric acid (pH 8.0). The eluate containing angiotensinogen was applied to repeated concentration and dilution using Vivaspin 20 (molecular weight cut off 10,000, Vivascience, Inc.), and the buffer was changed to 20 mM tris-hydrochloric acid (pH 8.0). The eluate was fed to a 6-ml RESOURCE Q column (Amersham Biosciences, Inc.) equilibrated with 20 mM Tris-hydrochloric acid (pH 8.0) containing 50 mM sodium chloride at a flow rate of 6 ml/min to adsorb the angiotensinogen. After washing the column with the buffer solution used in the equilibration, elution was carried out by means of a linear concentration gradient of sodium chloride from 50 mM to 400 mM. The fractions containing angiotensinogen were collected and concentrated using Vivaspin 20 (molecular weight cut off 10,000, Vivascience, Inc.) to a volume of about 2 ml.
(7) Measurement of Renin Inhibition Value—B
As a substrate for renin activity measurement, the angiotensinogen mentioned in (5) above was used. 1 μeach of the test compound (containing 100% DMSO) was added to each well of a 384-well plate (ABgene). Renin was diluted with a buffer solution for reaction (20 mM sodium phosphate (pH 7.4)) to a concentration of 57 pM, and 14 μl each of the dilution was added to each well. The dilution was left to stand at 37° C. for 10 min, and then 5 μl of each of a 6 μM solution of substrate angiotensinogen was added to each well to initiate the reaction. […] The amount of angiotensin I produced by an enzyme reaction was quantified by Enzyme immunoassay (EIA) described below.
Anti-angiotensin I antibody (Peninsula Laboratories Inc.) diluted 5,000-fold with PBS was added to each well of a 384 well black plate (Nalge Nunc International Co., Ltd.) by 25 μl, and left standing overnight at 4° C. to immobilize the antibody in the plate. The antibody solution was removed, PBS solution (100 μl) containing 1% BSA was added to each well, and the mixture was left standing at room temperature for 2 hr for blocking. The blocking solution was removed, and each well was washed 5 times with 100 μl of 0.05% Tween20-PBS. […] Then, a biotinated angiotensin I solution (AnaSpec, 15 μl) prepared to 1.6 nM with a buffer [20 mM tris-hydrochloric acid (pH 7.4), 150 mM sodium chloride, 0.01% BSA, 0.05% Tween20] was added to each well, mixed with a plate mixer and left standing at room temperature for 1 hr.

Row | human renin inhibitory activity: inhibitory activity (%) at 1 μM [%] | Compound
1 | 98 | COCCCNc1nc(C(C)(C)C)ncc1C(=O)N(CC(C)C)[C@@H]1CNC[C@H](C(=O)N2CCOCC2)C1.O=C(O)/C=C/C(=O)O [Example 207, 2-tert-butyl-4-[(3-methoxypropyl)amino]-N-(2-methylpropyl)-N-[(3S,5R)-5-(morpholin-4-ylcarbonyl)piperidin-3-yl]pyrimidine-5-carboxamide monofumarate]

same assay, conditions: 1 μM test compound, pH 7.4, 37° C., 30 min, read-out: human renin inhibitory activity: inhibitory activity (%) at 1 μM

Row | Compound | inhibition at 1 µM [%]
2 | CC(C)CN(C(=O)c1cnc(C(C)(C)C)nc1NCc1ccco1)[C@@H]1CNC[C@H](C(N)=O)C1 (relative stereo) [Example 93, N-[(3R*,5S*)-5-(aminocarbonyl)piperidin-3-yl]-2-tert-butyl-4-[(2-furylmethyl)amino]-N-isobutylpyrimidine-5-carboxamide dihydrochloride] | 97
3 | CC(C)CN(C(=O)c1cnc(C(C)(C)C)nc1NCc1ccco1)[C@@H]1CNC[C@H](C(=O)N2CCC(C)(O)CC2)C1 (relative stereo) [Example 94, 2-tert-butyl-4-[(2-furylmethyl)amino]-N-{(3R*,5S*)-5-[(4-hydroxy-4-methylpiperidin-1-yl)carbonyl]piperidin-3-yl}-N-isobutylpyrimidine-5-carboxamide dihydrochloride] | 97
4 | COC(=O)[C@H]1CNC[C@@H](N(CC(C)C)C(=O)c2cnc(C(C)(C)C)nc2NCCCSC)C1 (relative stereo) [Example 98, methyl (3R*,5S*)-5-[[(2-tert-butyl-4-{[3-(methylthio)propyl]amino}pyrimidin-5-yl)carbonyl](isobutyl)amino]piperidine-3-carboxylate] | 97
5 | COC(=O)[C@H]1CNC[C@@H](N(CC(C)C)C(=O)c2cnc(C(C)(C)C)nc2NCc2ccccc2)C1 (relative stereo) [Example 99, methyl (3R*,5S*)-5-[{[4-(benzylamino)-2-tert-butylpyrimidin-5-yl]carbonyl}(isobutyl)amino]piperidine-3-carboxylate] | 97
6 | COCCCNc1nc(C(C)(C)C)ncc1C(=O)N(CC(C)C)[C@@H]1CNC[C@H](C(=O)OC)C1 [Example 96, methyl (3R,5S)-5-[({2-tert-butyl-4-[(3-methoxypropyl)amino]pyrimidin-5-yl}carbonyl)(isobutyl)amino]piperidine-3-carboxylate dihydrochloride] | 97
7 | CC(C)CN(C(=O)c1cnc(C(C)(C)C)nc1NCc1ncco1)[C@@H]1CNC[C@H](C(=O)N2CCOCC2)C1 [Example 109, 2-tert-butyl-N-(2-methylpropyl)-N-[(3S,5R)-5-(morpholin-4-ylcarbonyl)piperidin-3-yl]-4-[(1,3-oxazol-2-ylmethyl)amino]pyrimidine-5-carboxamide sulfate] | 98

Results, then the compound that gave them:

Row | inhibition at 1 µM [%] | Compound
8 | 97 | CC(C)CN(C(=O)c1cnc(C(C)(C)C)nc1NCc1ccco1)[C@@H]1CNC[C@H](C(C)(C)O)C1 (relative stereo) [Example 95, 2-tert-butyl-4-[(2-furylmethyl)amino]-N-[(3R*,5S*)-5-(1-hydroxy-1-methylethyl)piperidin-3-yl]-N-isobutylpyrimidine-5-carboxamide dihydrochloride]
9 | 58 | CCC1CCCCN1C(=O)c1cnc(C(C)(C)C)nc1NCc1ccco1 (centres unmarked) [Example 21, 2-tert-butyl-5-[(2-ethylpiperidin-1-yl)carbonyl]-N-(2-furylmethyl)pyrimidin-4-amine]
10 | 82 | CC(C)(C)c1ncc(C(=O)N2CCC(CN)CC2)c(NCc2ccco2)n1 [Example 58, 5-{[4-(aminomethyl)piperidin-1-yl]carbonyl}-2-tert-butyl-N-(2-furylmethyl)pyrimidin-4-amine dihydrochloride]
11 | 86 | CNCC1CCN(C(=O)c2cnc(C(C)(C)C)nc2NCc2ccco2)CC1 [Example 59, 2-tert-butyl-N-(2-furylmethyl)-5-({4-[(methylamino)methyl]piperidin-1-yl}carbonyl)pyrimidin-4-amine dihydrochloride]
12 | 54 | CNCC1CCN(C(=O)c2cnc(C(C)C)nc2NCc2ccco2)CC1 [Example 63, N-(2-furylmethyl)-2-isopropyl-5-({4-[(methylamino)methyl]piperidin-1-yl}carbonyl)pyrimidin-4-amine]
13 | 98 | CC(C)CN(C(=O)c1cnc(C(C)(C)C)nc1NCc1ccco1)[C@@H]1CNC[C@H](C(N)=O)C1 [Example 132, 2-tert-butyl-N-[(3S,5R)-5-carbamoylpiperidin-3-yl]-4-[(furan-2-ylmethyl)amino]-N-(2-methylpropyl)pyrimidine-5-carboxamide dihydrochloride]

same assay, conditions: pH 7.4, 1 μM test compound, pH 7.4, 37° C., 30 min, read-out: human renin inhibitory activity: inhibitory activity (%) at 1 μM

Row | inhibition at 1 µM [%] | Compound
14 | 97 | COCCCNc1nc(C(C)(C)C)ncc1C(=O)N(CC(C)C)[C@@H]1CNC[C@H](C(=O)N2CCOCC2)C1 [Example 97, 2-tert-butyl-4-[(3-methoxypropyl)amino]-N-(2-methylpropyl)-N-[(3S,5R)-5-(morpholin-4-ylcarbonyl)piperidin-3-yl]pyrimidine-5-carboxamide dihydrochloride]
